These results are taken from US20130072506A1, “6,8-DISUBSTITUTED PURINE COMPOSITIONS” (priority 2011, published 2013).

The subject of assay [1] is Human diploid fibroblast BJ. The assay is described as follows: In vitro cytotoxic activity (metabolisation of MTT). The format is cell-based. Particulars: 72 hours, BJ passage 18-22. The method, then: In vitro Cytotoxic Activity (metabolisation of Mtt). MTT ([…]) assay is a standard colorimetric assay for evaluation of cytotoxicity. Mitochondrial dehydrogenase activity converts yellow MTT into violet formazan which is measured by means of spectrometry.
Human diploid fibroblast BJ (passage 18-22) were seeded into 96-well plate (5.000 cells per well). After 6 hours cultivation medium (DMEM with 5 g/l glucose, 2 mM glutamine, 100 U/ml penicillin, 100 mmg/ml streptomycin, 10% fetal calf serum and sodium bicarbonate) was replaced with the cultivation medium containing test compounds in concentration range of 0-200 μM. Highest concentration was adjusted if the solubility of the compound was limiting. Every concentration was tested in pentaplicate. MTT was added to the cells after 72 hours incubation (final concentration 0.5 mg/ml) and incubation continued for another 3 hours. MTT was solubilised by DMSO and absorbance at 570 nm was measured. Growth inhibition (GI) was estimated using the following equitation: GI=(mean A drug exposed wells−mean Ablank/mean Acontrol wells−mean Ablank)×100%. The GI20 value, the drug concentration causing 20% decrease in mitochondrial dehydrogenase activity, was calculated from the obtained dose response curves.

For assay [2], the system named is osteosarcoma cell line HOS. The assay is described as follows: In vitro cytotoxic activity (metabolisation of Calcein AM). The format is cell-based, human. Particulars: HOS cells, 72 hours incubation, called GI50, read-out: Cell line tested/IC50 (μmol/L) HOS. The text has this:
(§1) In vitro Cytotoxic Activity (Metabolisation of Calcein AM). Because toxic compounds negatively influence metabolic processes of cells, many standard cytotoxicity assays are based on measurement of metabolisation rate of various artificial substrates. Resulting product is then quantified, for example, by means of spectrometry. The assays can be easily modified for use in 96-well plates. For evaluation of cytotoxicity of the 6,8-disubstituted purines of this invention, a microtiter assay based on quantification of metabolisation of Calcein AM was used. The assay is widely used in drug screening programs and in chemosensitivity testing. In live cells, Calcein AM is enzymatically hydrolysed and accumulation of resulting calcein is manifested by green fluorescence.
(§2) The following human cell lines were used for routine screening of the compounds: normal diploid fibroblasts BJ, T-lymphoblastic leukemia cell line CEM, promyelocytic leukemia cell line HL-60, erytroid leukemia cell line K-562, breast carcinoma cell line MCF-7, osteosarcoma cell line HOS and melanoma cell line G-361. The cells were maintained in Nunc/Corning 80 cm^2 plastic tissue culture flasks and cultured in cell culture medium (DMEM with 5 g/l glucose, 2 mM glutamine, […] penicillin, 100 mmg/ml streptomycin, 10% fetal calf serum and sodium bicarbonate).
(§3) The cell suspensions were prepared and diluted according to the particular cell type and the expected target cell density (2.500-30.000 cells per well based on cell growth characteristics) and pipetted (80 μl) into 96-well plates. Inoculates were allowed a pre-incubation period of 24 hours at 37° C. and 5% CO2 for stabilization. Tested compound was added in total volume of […] of water at time zero. Usually, test compound was evaluated at six 3-fold dilutions. In routine testing, the highest concentration tested was 100 μM, but it could have been adjusted because of limited solubility of a compound. All drug concentrations were tested in triplicates.
(§4) Incubations of cells with the test compounds lasted for 72 hours at 37° C., in 5% CO2 atmosphere and 100% humidity. At the end of incubation period Calcein AM in PBS was added into final concentration of 1 μg/ml. After another 1 hour of incubation fluorescence (FD) was measured with the Labsystem FIA Reader Fluoroscan Ascent (UK). Growth inhibition (GI) was estimated using the following equitation: GI=(mean FDdrug exposed wells−mean FDblank)/(mean FDcontrol wells−mean FDblank)×100%. The GI50 value, the drug concentration causing 50% reduction of Calcein AM conversion, was calculated from the obtained dose response curves.

Assay [3] relates to breast carcinoma cell line MCF-7. The description is as above. The format is cell-based, human. The settings on record: MCF7 cells, 72 hours incubation, called GI50, read-out: Cell line tested/IC50 (μmol/L) MCF7.
Text: as §1, §2, §3, §4

For assay [4], the system named is normal diploid fibroblasts BJ. The assay is described as above. The assay is classed as cell-based, human. Particulars: BJ cells, 72 hours incubation, called GI50, read-out: Cell line tested/IC50 (μmol/L) BJ.
Text: as §1, §2, §3, §4

Assay [5] concerns T-lymphoblastic leukemia cell line CEM. The assay is described as above. The format is cell-based, human. The settings on record: CEM cells, 72 hours incubation, called GI50, read-out: Cell line tested/IC50 (μmol/L) CEM.
Text: as §1, §2, §3, §4

A further assay concerns melanoma cell line G-361. The description is as above. The format is cell-based, human. The settings on record: G-361 cells, 72 hours incubation, called GI50, read-out: Cell line tested/IC50 (μmol/L) G-361.
Text: as §1, §2, §3, §4

Assay [6] has as its system erytroid leukemia cell line K-562. The description is as above. The assay is classed as cell-based, human. The settings on record: 72 hours incubation, called GI50, read-out: Cell line tested/IC50 (μmol/L) K-562.
Text: as §1, §2, §3, §4

Setting [7] is: Homo sapiens, K562, K-562 cells.

Structures are written as SMILES. Like-named read-outs stand apart in the source and are kept apart here.

In the case of `Oc1cccc(CNc2ncnc3nc(Cl)[nH]c23)c1O` [Compound 46], the GI20 in assay [1] is above 200 µmol/L. Also, the IC50 in assay [2] was above 100 µmol/L; in assay [3], above 100 µmol/L; in assay [4], above 100 µmol/L; in assay [5] it was above 100 µmol/L; in the assay with melanoma cell line G-361 it was above 100 µmol/L; in assay [6] (K-562 cells), above 50 µmol/L.
In the case of `Oc1cc(O)cc(CNc2ncnc3nc(Cl)[nH]c23)c1` [Compound 47], the GI20 in assay [1] was above 200 µmol/L. The IC50 (in assay [2]; in assay [3]; in assay [4]; in assay [5]; with melanoma cell line G-361; in assay [6] (K-562 cells)) was above 100 µmol/L throughout.
In assay [1], `CC(=CCNc1ncnc2nc(N(C)C)[nH]c12)CO` [Compound 63] yielded a GI20 above 100 µmol/L. The IC50 (in assay [2]; in assay [3]; in assay [4]; in assay [5]; in the assay on melanoma cell line G-361; in assay [6] (K-562 cells)) was above 50 µmol/L each time.
Consider `CC(CO)CCNc1ncnc2nc(N(C)C)[nH]c12` (stereo not drawn) [Compound 64], for which the GI20 in assay [1] was above 100 µmol/L. Moreover, the IC50 (in assay [2]; in assay [3]; in assay [4]; in assay [5]; in the assay with melanoma cell line G-361; in assay [6] (K-562 cells)) was above 50 µmol/L in each case.
Regarding `Cc1cccc(Nc2ncnc3nc(N(C)C)[nH]c23)c1` [Compound 81], the GI20 in assay [1] was above 100 µmol/L. Besides, the IC50 (in assay [2]; in assay [3]; in assay [4]; in assay [5]; with melanoma cell line G-361; in assay [6] (K-562 cells)) was above 50 µmol/L throughout.
In assay [1], `CC(=CCNc1ncnc2nc(N)[nH]c12)CO` [Compound 84] registered a GI20 above 100 µmol/L. Also, the IC50 (in assay [2]; in assay [3]; in assay [4]; in assay [5]; in the assay with melanoma cell line G-361; in assay [6] (K-562 cells)) was above 50 µmol/L each time.
Take `C/C(=C\CNc1ncnc2nc(N)[nH]c12)CO` [Compound 85, 6-(E)-(4-hydroxy-3-methylbut-2-en-1-ylamino)-8-aminopurine]: the GI20 in assay [1] was above 100 µmol/L. Moreover, the IC50 was above 50 µmol/L in assay [2] (Homo sapiens); above 50 µmol/L in assay [3] (Homo sapiens); above 50 µmol/L in assay [4] (Homo sapiens); above 50 µmol/L in assay [5] (Homo sapiens, CCRF-CEM); above 50 µmol/L in the assay with melanoma cell line G-361 (Homo sapiens); above 50 µmol/L in assay [6] (setting [7]).
Take `CC(CO)CCNc1ncnc2nc(N)[nH]c12` (stereo not drawn) [Compound 86, 6-(4-hydroxy-3-methylbutylamino)-8-aminopurine]: the GI20 in assay [1] is above 100 µmol/L. In addition, the IC50 is above 50 µmol/L in assay [2] (Homo sapiens); above 50 µmol/L in assay [3] (Homo sapiens); above 50 µmol/L in assay [4] (Homo sapiens); above 50 µmol/L in assay [5] (Homo sapiens, CCRF-CEM); above 50 µmol/L in the assay on melanoma cell line G-361 (Homo sapiens); above 50 µmol/L in assay [6] (setting [7]).
In turn, `Nc1nc2ncnc(NCc3ccccc3F)c2[nH]1` [Compound 88] showed a GI20 in assay [1] above 100 µmol/L. Moreover, the IC50 (in assay [2]; in assay [3]; in assay [4]; in assay [5]; with melanoma cell line G-361; in assay [6] (K-562 cells)) was above 50 µmol/L throughout.
On to `Nc1nc2ncnc(NCc3cccc(F)c3)c2[nH]1` [Compound 89], for which, in assay [1], the GI20 is above 100 µmol/L. The IC50 (in assay [2]; in assay [3]; in assay [4]; in assay [5]; in the assay with melanoma cell line G-361; in assay [6] (K-562 cells)) was above 50 µmol/L each time.
In assay [1], `Nc1nc2ncnc(NCc3ccc(F)cc3)c2[nH]1` [Compound 90] gave a GI20 above 100 µmol/L. The IC50 (in assay [2]; in assay [3]; in assay [4]; in assay [5]; in the assay with melanoma cell line G-361; in assay [6] (K-562 cells)) was above 50 µmol/L in each case.
In turn, `Nc1nc2ncnc(NCc3cccc(Cl)c3)c2[nH]1` [Compound 91] had a GI20 in assay [1] above 100 µmol/L. The IC50 (in assay [2]; in assay [3]; in assay [4]; in assay [5]; in the assay on melanoma cell line G-361; in assay [6] (K-562 cells)) was above 50 µmol/L each time.
With `Nc1nc2ncnc(NCc3ccc(Cl)cc3)c2[nH]1` [Compound 92], the GI20 in assay [1] was above 100 µmol/L. In addition, the IC50 (in assay [2]; in assay [3]; in assay [4]; in assay [5]; in the assay on melanoma cell line G-361; in assay [6] (K-562 cells)) was above 50 µmol/L throughout.
As to `COc1ccccc1CNc1ncnc2nc(N)[nH]c12` [Compound 97], in assay [1], the GI20 was above 100 µmol/L. Besides, the IC50 (in assay [2]; in assay [3]; in assay [4]; in assay [5]; in the assay on melanoma cell line G-361; in assay [6] (K-562 cells)) was above 50 µmol/L in each case.
As to `COc1cccc(CNc2ncnc3nc(N)[nH]c23)c1` [Compound 98], the GI20 in assay [1] is above 100 µmol/L. The IC50 (in assay [2]; in assay [3]; in assay [4]; in assay [5]; in the assay on melanoma cell line G-361; in assay [6] (K-562 cells)) was above 50 µmol/L throughout.
`COc1ccc(CNc2ncnc3nc(N)[nH]c23)cc1` [Compound 99]: the GI20 in assay [1] was above 100 µmol/L. Moreover, the IC50 (in assay [2]; in assay [3]; in assay [4]; in assay [5]; in the assay on melanoma cell line G-361; in assay [6] (K-562 cells)) was above 50 µmol/L each time.
For `Nc1nc2ncnc(NCc3cccc([N+](=O)[O-])c3)c2[nH]1` [Compound 100], the GI20 in assay [1] is above 100 µmol/L. The IC50 (in assay [2]; in assay [3]; in assay [4]; in assay [5]; with melanoma cell line G-361; in assay [6] (K-562 cells)) was above 50 µmol/L throughout.
Take `Nc1nc2ncnc(NCc3ccc(Cl)c(Cl)c3)c2[nH]1` [Compound 101]: the GI20 in assay [1] is above 100 µmol/L. In addition, the IC50 (in assay [2]; in assay [3]; in assay [4]; in assay [5]; in the assay on melanoma cell line G-361; in assay [6] (K-562 cells)) was above 50 µmol/L each time.
